# In US6506799B1, “Methods of treating cardiovascular diseases, dyslipidemia, dyslipoproteinemia, and hypertension with ether compounds” (Esperion Therapeutics, Inc., priority 1999, dated 2003):
# Key:
# [1] = test system: chow fed obese female Zucker rats; test: Experiments B, C, D, E: serum lipids, glucose, insulin, body and liver weight in obese female Zucker rats, 14 days; format: in vivo, rat; conditions: for Body Weight Gain (% of Pretreatment) / HDL-Cholesterol (% of Pretreatment) / Non HDL-Cholesterol (% of Pretreatment) / Triglycerides (% of Pretreatment): 14 days
# Experimental: In a number of different experiments, illustrative compounds of the invention and troglitazone were administered daily at various doses to 10-week old chow fed obese female Zucker rats for 14 days in the morning by oral gavage in 1.5% carboxymethylcellulose/0.2% Tween-20 (dosing vehicle). Animals were weighed daily. Animals were allowed free access to rodent chow and water throughout the study. Blood glucose was determined after a 6-hour fast in the afternoon without anesthesia from a tail vein. Serum was also prepared from a blood sample subsequently obtained from the orbital venous plexus (with O2/CO2 anesthesia) prior to and after one week treatment and used lipid and insulin determinations. At two weeks, blood glucose was again determined after a 6-hour fast without anesthesia from a tail vein. Soon thereafter, animals were sacrificed by CO2 inhalation in the evening and cardiac blood serum was collected and assessed for various lipids and insulin. Body weight was determined daily prior to dosing and at the time of euthanasia.
# [2] = test system: chow fed male Sprague-Dawley rats; test: Serum lipids, apolipoproteins and weight gain in chow fed male Sprague-Dawley rats after seven days of treatment; format: in vivo, rat; conditions: 100 mg/kg/day oral gavage, 7 days; normalized against vehicle control
# Experimental: Illustrative compounds of the invention were administered daily at a dose of 100 mg/kg to chow fed male Sprague-Dawley rats for seven days in the morning by oral gavage in 1.5% carboxymethylcellulose/0.2% Tween-20 (dosing vehicle). Animals were weighed daily. Animals were allowed free access to rodent chow and water throughout the study. After the seventh dose, animals were sacrificed in the evening and blood serum was assayed for lipoprotein cholesterol profiles, serum triglycerides, total cholesterol VLDL, LDL, and HDL cholesterol, and the ratio of HDL cholesterol to that of VLDL plus LDL cholesterol, apolipoproteins A-I, C-II, C-III, and E by immunoelectrophoresis, and percent weight gain.
# The five compounds were tested in two separate experiments. In each experiment, the experimental data were normalized against a control group of rats which received the dosing vehicle alone.
# primary rat hepatocytes = test: Synthesis of non-saponified and saponified lipids (14C-acetate incorporation) in hepatocytes; format: cell-based; conditions: 100 μM; 14C-acetate 2 hr; vs no compound control
# Experimental: A male Sprague-Dawley rat was anesthetized by administration of sodium pentobarbitol by intraparitoneal injection at 50 mg/kg. In situ perfusion of the liver was performed as follows. […] To digest the liver, DSC solution (6.7 mM KCl, 143 mM NaCl, 9.2 mM Na HEPES, 5 mM CaCl2-2H2O, 1.7 mM Fructose, 0.029 mM Phenol red, 0.2% BSA, 100 U/ml collagenase Type I, 93 U/ml Hyaluronidase, 160 BAEE/ml trypsin inhibitor, pH 7.5) was perfused through the liver at a flow rate of 30 ml/min for 6 minutes at a temperature of 37° C. After digestion, cells were dispersed in a solution of DMEM-(DMEM containing 2 mM GlutMax-1, 0.2% BSA, 5% FBS, 12 nM insulin, 1.2 μM hydrocortisone) to stop the digestion process. The crude cell suspension was filtered through three layers of stainless steel mesh with pore sizes of 250, 106, and 75 μm respectively. Filtered cells were centrifuged at 50×g for two minutes and the supernatant discarded. The resulting cell pellet was resuspended in DMEM and centrifuged again. This final cell pellet was resuspended in DMEM+HS solution (DMEM containing 2 mM GlutMax-1, 20 nM delta-aminolevulinic acid, 17.4 mM MEM non-essential amino acids, 20% FBS, 12 nM insulin, 1.2 µM hydrocortisone) and plated to form monolayer cultures at a density of 100×10^3 cells/cm^2 on collagen coated culture dishes. Four hours after initial plating, media was changed to DMEM+(DMEM containing 2 mM GlutMax-1, 20 nM delta-aminolevulinic acid, 17.4 mM MEM non-essential amino acids, 10% FBS, 12 nM insulin, 1.2 μM hydrocortisone) and remained on cells overnight.
# To test the effect of illustrative compounds of the invention on synthesis rates of non-saponified and saponified lipids, the monolayer cultures were exposed to 1 μM of lovastatin or 100 μM Compound A, B, D, E or F in DMEM+ containing 1 μCi/ml ^14C-acetate. Control cells were exposed to the same media lacking lovastatin or the test compounds. All cells were exposed to 0.1% DMSO. Metabolic labeling with ^14C-acetate continued for 2 hr at 37° C. After labeling, cells were washed twice with 1 ml of PBS followed by lysing in 1 ml of deionized water. Cells were scraped from the dishes, transferred to glass tubes and sonicated. 2.5 ml of 2:1 chloroform/methanol mixture was added followed by 1.5 ml of Phosphate Buffered Saline (PBS). To correct for extraction efficiency in the upcoming extractions, 3000 dpm of ^3H-cholesterol was added to each tube. Tubes were shaken for 30 min. to extract lipids into the organic phase followed by centrifugation for 10 minutes at 1000×g to separate the organic and aqueous phases. The lower organic phase containing total lipids was removed and placed in a new tube. The organic solution was evaporated under N2. […]
# female obese Zucker rats = test: Experiment A: serum lipids, glucose, non-esterified fatty acids and weight gain in obese female Zucker rats after seven days; format: in vivo, rat; conditions: 120 mg/kg
# Experimental: Dosing vehicle, Compound A (86 mg/kg of body weight) or troglitazone (120 mg/kg of body weight) was administered to eight week old female obese Zucker rats daily for seven days in the morning by oral gavage in 1.5% carboxymethylcellulose/0.2% Tween-20. Troglitazone was obtained commercially. Finely crushed tablets were suspended in vehicle for dosing. Orbital blood samples were obtained following a six-hour fast prior to the initial dose and also following the seventh dose.
# Blood serum was assayed for total cholesterol and triglycerides (FIG. 5), lipoprotein cholesterol profiles (FIG. 6), VLDL plus LDL cholesterol combined (also referred to as apo B containing lipoprotein cholesterol or non-HDL cholesterol), HDL cholesterol, and the ratio of HDL cholesterol to that of VLDL plus LDL cholesterol (FIG. 7), serum glucose, and non-esterified fatty acids (FIG. 8), and percent weight gain (FIG. 9). […] In particular, Compound A caused a marked elevation in HDL cholesterol after one week of treatment. Using the serum total cholesterol values (FIG. 5A) and the lipoprotein cholesterol distribution (FIG. 6), the amount of cholesterol associated with non-HDL (i.e., VLDL plus LDL) and HDL were determined (FIG. 7). […] In contrast, troglitazone reduced non-HDL and HDL cholesterol by 67% and 4%, respectively.
smiles,measurement,setting,value
"CC(C)(CCCCOCCCCC(C)(C)OP(=O)(O)O)OP(=O)([O-])[O-].[Na+].[Na+] [Compound B, phosphoric acid mono-(1,1-dimethyl-5-(5-methyl-5-phosphonooxy-hexyloxy)-pentyl)ester sodium salt]",Body Weight Gain (% of Pretreatment),"[1]; Experiment B, 100 mg/kg/day",+12.0 % of Pretreatment
same,HDL-Cholesterol (% of Pretreatment),"[1]; Experiment B, 100 mg/kg/day",−23.3 % of Pretreatment
same,Non HDL-Cholesterol (% of Pretreatment),"[1]; Experiment B, 100 mg/kg/day",+257.1 % of Pretreatment
same,Triglycerides (% of Pretreatment),"[1]; Experiment B, 100 mg/kg/day",+24.6 % of Pretreatment
same,HDL-Cholesterol (% change),[2],+40.7 % change
same,LDL-Cholesterol (% change),[2],+23.2 % change
same,Triglyceride (% change),[2],−31.1 % change
"CC(C)(CCCCOCCCCC(C)(C)OP(=O)(OCc1ccccc1)OCc1ccccc1)OP(=O)(OCc1ccccc1)OCc1ccccc1 [Compound C, phosphoric acid dibenzyl ester 5-(5-(bis-benzyloxy-phosphoryloxy)-5-methyl-hexyloxy)-1,1-dimethyl-pentyl ester]",HDL-Cholesterol (% change),[2],+11.6 % change
same,LDL-Cholesterol (% change),[2],−4.0 % change
same,Triglyceride (% change),[2],+32.6 % change
"CC(C)(CCCOCCCC(C)(C)OP(=O)(O)O)OP(=O)([O-])[O-].[Na+].[Na+] [Compound D, phosphoric acid mono-(1,1-dimethyl-4-(4-methyl-4-phosphonooxy-pentyloxy)-butyl)ester sodium salt]",HDL-Cholesterol (% change),[2],+13.3 % change
same,LDL-Cholesterol (% change),[2],−17.0 % change
same,Triglyceride (% change),[2],+28.0 % change
"CC(C)(CCCOCCCC(C)(C)OP(=O)(OCc1ccccc1)OCc1ccccc1)OP(=O)(OCc1ccccc1)OCc1ccccc1 [Compound E, phosphoric acid dibenzyl ester 4-(4-(bis-benzyloxy-phosphoryloxy)-4-methyl-pentyloxy)-1,1-dimethyl-butyl ester]",rates of saponified fatty acid synthesis,primary rat hepatocytes,reduced the rates of saponified fatty acid synthesis
same,HDL-Cholesterol (% change),[2],+49.1 % change
same,LDL-Cholesterol (% change),[2],−41.0 % change
same,Triglyceride (% change),[2],−30.5 % change
"CC(C)(O)CCCCOCCCCC(C)(C)O [Compound F, 6-(5-hydroxy-5-methyl-hexyloxy)-2-methyl-hexan-2-ol]",rates of saponified fatty acid synthesis,primary rat hepatocytes,reduced the rates of saponified fatty acid synthesis
"Cc1c(C)c2c(c(C)c1O)CCC(C)(COc1ccc(CC3SC(=O)NC3=O)cc1)O2 (stereo not drawn) [troglitazone, reference compound]",reduction of HDL cholesterol,female obese Zucker rats; one week,4%
same,reduction of non-HDL cholesterol,female obese Zucker rats; one week,67%
same,reduction of non-esterified fatty acids,female obese Zucker rats; one week,65%
same,increase in weight gain,"female obese Zucker rats; seven days, vehicle 6.6%",+11.6%
same,Body Weight Gain (% of Pretreatment),"[1]; Experiment B, 120 mg/kg/day",+21.7 % of Pretreatment
same,HDL-Cholesterol (% of Pretreatment),"[1]; Experiment B, 120 mg/kg/day",+44.2 % of Pretreatment
same,Non HDL-Cholesterol (% of Pretreatment),"[1]; Experiment B, 120 mg/kg/day",−44.0 % of Pretreatment
same,Triglycerides (% of Pretreatment),"[1]; Experiment B, 120 mg/kg/day",−76.6 % of Pretreatment
same,Body Weight Gain (% of Pretreatment),"[1]; Experiment C, 12 mg/kg/day",+20.2 % of Pretreatment
same,HDL-Cholesterol (% of Pretreatment),"[1]; Experiment C, 12 mg/kg/day",+1.9 % of Pretreatment
same,Non HDL-Cholesterol (% of Pretreatment),"[1]; Experiment C, 12 mg/kg/day",−10.6 % of Pretreatment
same,Triglycerides (% of Pretreatment),"[1]; Experiment C, 12 mg/kg/day",+10.7 % of Pretreatment
same,Body Weight Gain (% of Pretreatment),"[1]; Experiment C, 40 mg/kg/day",+21.2 % of Pretreatment
same,HDL-Cholesterol (% of Pretreatment),"[1]; Experiment C, 40 mg/kg/day",+36.1 % of Pretreatment
same,Non HDL-Cholesterol (% of Pretreatment),"[1]; Experiment C, 40 mg/kg/day",−50.5 % of Pretreatment
same,Triglycerides (% of Pretreatment),"[1]; Experiment C, 40 mg/kg/day",−59.6 % of Pretreatment
same,HDL increase,"[1]; Experiment C, 120 mg/kg dose",122%
same,Body Weight Gain (% of Pretreatment),"[1]; Experiment C, 120 mg/kg/day",+25.5 % of Pretreatment
same,HDL-Cholesterol (% of Pretreatment),"[1]; Experiment C, 120 mg/kg/day",+122.4 % of Pretreatment
same,Non HDL-Cholesterol (% of Pretreatment),"[1]; Experiment C, 120 mg/kg/day",−67.5 % of Pretreatment
same,Triglycerides (% of Pretreatment),"[1]; Experiment C, 120 mg/kg/day",−79.2 % of Pretreatment
same,percent liver to body weight,"[1]; Experiment C, all doses, after two weeks, FIG. 16",reduced at all doses
same,Body Weight Gain (% of Pretreatment),"[1]; Experiment D, 120 mg/kg/day",+13.8 % of Pretreatment
same,HDL-Cholesterol (% of Pretreatment),"[1]; Experiment D, 120 mg/kg/day",+41.3 % of Pretreatment
same,Non HDL-Cholesterol (% of Pretreatment),"[1]; Experiment D, 120 mg/kg/day",−51.0 % of Pretreatment
same,Triglycerides (% of Pretreatment),"[1]; Experiment D, 120 mg/kg/day",−65.9 % of Pretreatment
same,Body Weight Gain (% of Pretreatment),"[1]; Experiment E, 120 mg/kg/day",+14.4 % of Pretreatment
same,HDL-Cholesterol (% of Pretreatment),"[1]; Experiment E, 120 mg/kg/day",+47.9 % of Pretreatment
same,Non HDL-Cholesterol (% of Pretreatment),"[1]; Experiment E, 120 mg/kg/day",−67.4 % of Pretreatment
same,Triglycerides (% of Pretreatment),"[1]; Experiment E, 120 mg/kg/day",−69.4 % of Pretreatment
